Assay results: US8535740B2, “Compositions from Nigella sativa” (priority 2002, dated 2013)

Assays:
AMPK = AMPK activation (pT172-AMPK) in C2C12 myocytes; type: cell-based, mouse; conditions: 1 mM
Experimental: Cell culture—Mouse C2C12 myoblasts were obtained from American Type Culture Collection (Manassas, Va.), and were maintained in Dulbecco's modified Eagle's medium (DMEM) supplemented with 10% fetal bovine serum at 37° C. under a humidified atmosphere of 5% CO2.
C2C12 cells were seeded at an initial density of 6×10^4 cells/cm^2 in 24-well plates. For two days, the cells were allowed grow to reach confluence. Following confluence, the cells were forced to differentiate into myocytes by culturing in DMEM supplemented with 2% horse serum for seven days.
Treatment—On Day 8 to 10 post differentiation, C2C12 myocytes were incubated in serum-free DMEM plus 0.5% BSA (bovine serum albumin) for three hours. […]
Measuring activated AMPKa—pT^172-AMPK was quantified using the Biosource AMPK Immunoassay Kit (Camarillo, Calif.) without modification. Protein content of the cell lysates was determined with the Active Motif fluorescent protein assay reagent (Carlsbad Calif., Hoefelschweiger, B. K., Duerkop, A., and Wolfbeis, O. S. Novel type of general protein assay using a chromogenic and fluorogenic amine-reactive probe. Anal Biochem 2005, 344, 122-9). A Packard Fluorocount spectrofluorometer (Model #BF 10000, Meridan, Conn.) was used for protein determination and a MEL312e BIO-KINETICS READER (Bio-Tek Instruments, Winooski, Vt.) was used for quantification of pT^172-AMPK. […]

[1] = system: adiponectin secretion in 3T3-L1 adipocytes; assay: Adiponectin secretion in t10-CLA-stimulated 3T3-L1 adipocytes; type: cell-based, murine
Experimental: Treatment—Test materials were added four hours prior to the addition of t10-CLA at a concentration of 50 μM. Following overnight incubation, the supernatant media were sampled for determination of IL-6 and adiponectin. Adiponectin assay—The adiponectin secreted into the medium was quantified using the Mouse Adiponectin Quantikine® Immunoassay kit with no modifications (R&D Systems, Minneapolis, Minn.). […] Statistical Calculations and Interpretation—Test materials and were assayed in duplicate, while solvent controls were replicated eight times. IL-6 and adiponectin secretion were represented relative to the IL-6 and adiponectin secretion of the t10-CLA only controls as the IL-6 and adiponectin index and differences among the means were analyzed by the student's t-test assuming a five percent probability of a type I error (Excel; Microsoft, Redmond, Wash.).

Caco-2 monolayers = assay: t10-CLA-induced loss of transepithelial electrical resistance in Caco-2 monolayers; type: cell-based, human; conditions: 50 μM t10-CLA stimulus, positive control set to 100; each material at its tabulated concentration (TQ 5.0, NS8 0.11, NS9 0.99, NS10 0.012, NSSpent#2 0.0005 μg TQ equivalents/mL; Spent#1 5 μg/mL)
Text: Caco-2 Cells-The protocol for growing and differentiation the human Caco-2 colon andenocarcinoma cells was a modification of Protocol 3 as described by Yamashita et al. [[…]., and Furuyama, Y. (2002) New and better protocols for a short-term Caco-2 cell culture system, J Pharm Sci 91, 669-679]. Caco-2 Human Colon Adenocarcinoma cells were obtained from ATCC (Rockville, Md.; catalog #HTB-37) and maintained in a growth media: DMEM (Dulbecco's Modified Eagles Medium 1×) containing L-glutamine, glucose; Cellgro catalog #35-010CV with the following additions: (1) Penicillin (5,000 IU/mL)/Streptomycin (5,000 μg/mL) Cellgro catalog #30-001C1, (2) 10% FBS-Fetal Bovine Serum, Characterized; Hyclone catalog #SH30071.3, and (3) 1% NEAA-Non Essential Amino Acids; Cellgro catalog #25-025-CI; cells were cultured at 37 C in a humidified air-5% CO2 atmosphere in T175 flasks. Differentiation of Caco-2 cells to intestinal epithelial cells-BIOCOAT^R HTS Caco-2 Assay System kits (Becton Dickinson, N.J.; catalog #354801) consisting of 24-well fibrillar collagen coated inserts and feeder trays were used in all experiments and plated as follows. Media was removed from the T175 flasks and cells were washed with 10 mLs PBS (phosphate buffered saline 1× without Ca^++, without Mg^++; Cellgro #25-053-CI). PBS was removed and 5 mL of Trypsin/EDTA (1×, 0.25% Trypsin/2.21 mM EDTA in HBSS; Cellgro #25-053-CI) were added to the flask and the flask placed at 37 C until cells were visibly floating, approximately 3-5 minutes. Five mL of growth media were added to the flask to neutralize the trypsin. This solution was then transferred to a sterile 50 mL tube. Eight μL were sampled and placed in a hemocytometer for counting under a microscope. Five-hundred μL of cell solution were placed in the upper chamber of each insert so that the final density per well was at least 6.6×10^5 cells/cm^2. Thirty-five mL of growth media were then added to the feeder tray and plate incubated at 37 C with 5% CO2 and 100% humidity for 20-24 hours. […]

[2] = system: IL-6 secretion in 3T3-L1 adipocytes; assay: IL-6 secretion in t10-CLA-stimulated 3T3-L1 adipocytes; type: cell-based, murine
Experimental: Treatment—Test materials were added four hours prior to the addition of t10-CLA at a concentration of 50 μM. Following overnight incubation, the supernatant media were sampled for determination of IL-6 and adiponectin. Interleukin-6 assay—The IL-6 secreted into the medium in response to […] stimulation was quantified using the Quantikine® Mouse IL-6 Immunoassay kit with no modifications (R&D Systems, Minneapolis, Minn.). […] All supernatant media samples were diluted 1:30 for quantification. Statistical Calculations and Interpretation—Test materials and were assayed in duplicate, while solvent controls were replicated eight times. IL-6 and adiponectin secretion were represented relative to the IL-6 and adiponectin secretion of the t10-CLA only controls as the IL-6 and adiponectin index and differences among the means were analyzed by the student's t-test assuming a five percent probability of a type I error (Excel; Microsoft, Redmond, Wash.).

[3] = relative to t10-CLA only control (100), 50 μM t10-CLA, overnight, each material at its tabulated concentration

Structure (SMILES)	increase in pT172-AMPK relative to DMSO negative controls (AMPK; average over ten independent assays, 95% CI=1.26-2.21)	AMPK activation (AMPK; in assays run with N. sativa supercritical CO2 extracts)	reduction in adiponectin secretion relative to controls ([1]; 50 μM)	Adiponectin Index [1, 3]	Relative Loss of TEER (Caco-2 monolayers)	increase in IL-6 secretion relative to controls ([2]; 50 μM)	IL-6 Index [2, 3]
NC(=O)c1ncn([C@@H]2O[C@H](CO)[C@@H](O)[C@H]2O)c1N [AICAR, 5-Aminoimidazole-4-carboxamide ribonucleoside]	1.67 fold	1.45 fold					
CCCCC/C=C\C=C\CCCCCCCCC(=O)O [t10-CLA, trans-10, cis12-Conjugated Linoleic Acid]			65%	100 ± 14	100 ± 5.81	8 fold	100 ± 11
